The values that follow come from patent US5028629A, “5-Lipoxygenase inhibitors” (Eli Lilly and Company, priority 1990, dated 1991).

Like-named read-outs stand apart in the source and are kept apart here.

Assay [1] deals with T1, 5-lipoxygenase (Cavia porcellus, UniProt A0A286X958).
T1 construct: 0.2 ml of the supernatant obtained from the PMNL sonicate; endogenous in cells; host or cells: casein-elicited guinea pig peritoneal polymorphonuclear leukocytes (PMNL), sonicate, 30,000 x g supernatant
T1 sequence (A0A286X958 1-674): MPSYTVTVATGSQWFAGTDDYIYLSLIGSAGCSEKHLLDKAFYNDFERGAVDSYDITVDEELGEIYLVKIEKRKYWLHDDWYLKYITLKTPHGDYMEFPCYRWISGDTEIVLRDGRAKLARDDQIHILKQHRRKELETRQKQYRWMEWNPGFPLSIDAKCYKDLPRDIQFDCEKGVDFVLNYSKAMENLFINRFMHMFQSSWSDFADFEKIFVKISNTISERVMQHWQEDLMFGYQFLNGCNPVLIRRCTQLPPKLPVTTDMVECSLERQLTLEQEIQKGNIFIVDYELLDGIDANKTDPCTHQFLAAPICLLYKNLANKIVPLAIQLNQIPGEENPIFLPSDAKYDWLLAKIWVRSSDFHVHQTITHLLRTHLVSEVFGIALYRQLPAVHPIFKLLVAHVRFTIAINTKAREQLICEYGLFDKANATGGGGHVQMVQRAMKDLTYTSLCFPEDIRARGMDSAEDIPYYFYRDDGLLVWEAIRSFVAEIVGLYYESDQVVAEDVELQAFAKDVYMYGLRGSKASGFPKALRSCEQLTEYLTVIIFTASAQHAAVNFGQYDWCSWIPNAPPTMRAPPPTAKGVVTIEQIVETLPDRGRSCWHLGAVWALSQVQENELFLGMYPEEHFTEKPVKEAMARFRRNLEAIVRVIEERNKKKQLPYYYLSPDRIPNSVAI
In words: 5-Lipoxygenase (5-LO) Assay: 5-HETE formation in supernatant of guinea pig PMNL sonicate. Format: biochemical. The protocol: Ten milliliters of a 2% casein solution is injected intraperitoneally to guinea pigs weighing 250-300 gm. After 16-18 hours, the guinea pigs are killed by suffocation in a carbon dioxide chamber. The peritoneal cavity is infused with 70 ml of saline and 40-50 ml of the fluid is recovered from the cavity. After centrifugation, cell pellets are washed twice in Hank's balanced salt solution (HBSS) without calcium ion.
The cells are then suspended in 5 ml of sodium phosphate buffer, pH 7.1 containing 1 mM, ethylene diamine tetraacetic acid (EDTA), and 0.1% gelatin. About 20-30×10^7 cells are obtained from one guinea pig.
The PMNL suspension is disrupted by five 1/2-second pulse sonication at the setting of 3 in a Branson Sonifier, Model 350, equipped with a microtip. The sonicates are combined and centrifuged at 30,000 ×g for 10 minutes. The supernatant is kept frozen at -70° C. until use.
Enzyme activity is determined by assaying for 5-hydroxy-6,8,11,14-eicosatetraenoic acid (5-HETE) formation by first incubating 0.2 ml of the supernatant obtained from the PMNL sonicate with the test compound, 1 mM CaCl2, 2 mM ATP, and 1 mM GSH for 5 minutes at 37° C. The mixture is treated with […] ^14 C-arachidonic acid and incubated at 37° C. an additional 10 minutes. The enzyme reaction is then stopped by the addition of 10 μl of 1M citric acid and 10 μl of an alcohol solution containing 20 mg/ml each of indomethacin and butylated hydroxyanisole (BHA). The reaction mixture is spotted (50 μl) on a silica gel plate (Baker TLC plate S1250-PA-19C) and subjected to TLC in a solvent system of ethyl acetate/2,2,4-trimethylpentane/glacialacetic acid/H2 O (90:50:20:100).
The radioactivity of the arachidonic acid and its metabolites (5-HETE and LTB4) is visualized from a developed x-ray film which had been exposed to the TLC plate 1-2 days. The amount of 5-HETE formed is quantitated by scraping the silica gel area corresponding to the spot on the x-ray film, and the radioactivity determined in a Isocap/300 liquid scintillation counter (Searle Analytic, Inc.).
The percent inhibition of the formation of 5-HETE is determined for each concentration of compound tested as compared to a control experiment wherein no test compound is added. The concentration and percent values are plotted on semi log paper and the concentration in which formation of 5-HETE is inhibited by 50% (IC50) is determined by interpolation.

The test system of assay [2] is polymorphonuclear leukocytes (PMNs). The assay can be described thus: H-PMN Assay: LTB4 content of supernatant of A23187-stimulated human PMNs by radioimmunoassay. It counts as cell-based. The following applies: Leukocyte. The method, then: Sodium citrated venous blood is drawn from normal human subjects. After centrifugation at 300 ×g for 15 minutes, the platelet-rich layer of plasma is discarded and an equal volume of Hanks' balanced salt solution (HBSS) is added to the enriched cell fraction. This platelet-depleted cell suspension is then layered on an equal volume of Ficoll-Paque. After centrifugation for 40 minutes at 300 ×g, the bottom layer containing erythrocytes and polymorphonuclear leukocytes (PMNs) is diluted with two volumes of a 0.2% methocel solution. The erythrocytes are sedimented upon standing for 15 minutes, and the supernatant containing the PMNs is aspirated and centrifuged at 300 ×g, for 5 minutes. The cell pellet is then exposed to 0.2% NaCl for 30 seconds to lyse any remaining erythrocytes, and the ionic strength of the suspension is readjusted to 0.9% with NaCl. The PMNs are recovered by centrifugation at 300 ×g for 5 minutes and are suspended in HBSS to a concentration of 2 ×10^6 cells/ml.
The test compounds are dissolved in and diluted with dimethylsulfoxide (DMSO) which also contains 2×10^-6 M of the calcium ionophore, A23187. To 1 ml of the PMN suspension, 10 μl of the DMSO solution is added, and the mixture is incubated at 37° C. for 10 minutes. The PMNs are rapidly pelleted in a microcentrifuge, and the supernatant is kept at -20° C. for future determination of LTB4 content via the radioimmunoassay.

The mark [3] stands for this setting: Table II, guinea pig PMNL sonicate supernatant, 14C-arachidonic acid, 37° C., read-out: 5-LO (concentration in which formation of 5-HETE is inhibited by 50%, IC50).
[4] abbreviates: 10 min, Table II, human PMNs, calcium ionophore A23187, 37° C. for 10 minutes, LTB4 by radioimmunoassay.
Setting [5] is: second table (Table III), known hydroxamic acid derivatives as comparison, read-out: 5-Lo (IC50).
Setting [6] is: Homo sapiens, second table (Table III), known hydroxamic acid derivatives as comparison.

On to `CCCCCCc1ccc(SC)c(C=CC(=O)N(C)O)c1` [Example 45, 2-methylthio-5-n-hexyl-N-hydroxy-N-methylcinnamamide], for which the results for the IC50 in assay [1] (setting [3]) and in assay [2] (setting [4]) were 58 nM and 20 nM, respectively.
The corresponding values for `CCCCCCc1cccc(C=CC(=O)N(C)O)c1S(C)(=O)=O` [Example 21, 2-methylsulfonyl-3-n-hexyl-N-hydroxy-N-methylcinnamamide] are 166 nM and 461 nM.
The corresponding values for `CCc1ccc(CCCc2ccccc2)cc1C=CC(=O)N(C)O` [Example 30, 2-ethyl-5-(3-phenylpropyl)-N-hydroxy-N-methylcinnamamide] are 59 nM and 46 nM.
For `CCCCCCc1ccc(S(C)(=O)=O)c(C=CC(=O)N(C)O)c1` [Example 9, 2-methylsulfonyl-5-n-hexyl-N-hydroxy-N-methylcinnamamide], the IC50 in assay [1] (setting [3]) was found to be 90 nM; in assay [2] (setting [4]), 259 nM.
Consider `CCCCOc1ccccc1C=CC(=O)N(C)O` [reference compound], for which the values for the IC50 in assay [1] (setting [5]) and in assay [2] (setting [6]) were 41 nM and 52 nM, respectively.
Turning to `CC(C)CSc1ccccc1C=CC(=O)N(C)O` [Example 40, 2-[1-(2-methylpropyl)thio]-N-hydroxy-N-methylcinnamamide], the figures for the IC50 in assay [1] (setting [3]) and in assay [2] (setting [4]) were 52 nM and 17 nM, respectively.
For `CCCCCCc1cccc(C=CC(=O)N(C)O)c1[S+](C)[O-]` (stereo not shown) [Example 20, 2-methylsulfinyl-3-n-hexyl-N-hydroxy-N-methylcinnamamide], in that order: 459 nM and 190 nM.
For `CN(O)C(=O)C=Cc1ccccc1SCc1ccccc1` [Example 31, 2-benzylthio-N-hydroxy-N-methylcinnamamide], in that order: 33 nM and 7 nM.
In the case of `CN(O)C(=O)C=Cc1ccccc1CCCc1ccccc1` [Example 43, 2-(3-phenylpropyl)-N-hydroxy-N-methylcinnamamide], the IC50 in assay [1] (setting [3]) was 60 nM; in assay [2] (setting [4]) it was 12 nM.
As for `CN(O)C(=O)C=Cc1ccccc1SCCCC(F)(F)F` [Example 5, 2-[1-(3-trifluoromethylpropyl)thio]-N-hydroxy-N-methylcinnamamide], the IC50 in assay [1] (setting [3]) was 32 nM; in assay [2] (setting [4]), 24 nM.
For the compound `CN(O)C(=O)C=Cc1ccccc1OCc1ccccc1` [reference compound], the IC50 in assay [1] (setting [5]) was found to be 54 nM; in assay [2] (setting [6]), 42 nM.
As for `CN(O)C(=O)C=Cc1ccccc1SCCCc1ccccc1` [Example 35, 2-[1-(3-phenylpropyl)thio]-N-hydroxy-N-methylcinnamamide], the IC50 turned out to be 9 nM in assay [1] (setting [3]) and 16 nM in assay [2] (setting [4]).
For `CN(O)C(=O)C=Cc1ccccc1Cc1ccccc1` [Example 37, 2-benzyl-N-hydroxy-N-methylcinnamamide], in that order: 53 nM and 28 nM.
For `CCCCCCc1ccc(C=CC(=O)N(C)O)c(SC)c1` [Example 19, 2-methylthio-4-n-hexyl-N-hydroxy-N-methylcinnamamide], in that order: 82 nM and 25 nM.
As for `CCCCSc1ccc(CCCc2ccccc2)cc1C(=O)N(C)O` [reference compound], the IC50 was determined as 178 nM in assay [1] (setting [5]) and 440 nM in assay [2] (setting [6]).
Take `CCCCCCSc1ccccc1C=CC(=O)N(C)O` [Example 3, 2-n-hexylthio-N-hydroxy-N-methylcinnamamide]: the IC50 in assay [1] (setting [3]) was determined as 17 nM; in assay [2] (setting [4]), 9 nM.
In the case of `C=CCCSc1ccccc1C=CC(=O)N(C)O` [Example 2], the IC50 in assay [1] (setting [3]) came out at 44 nM; in assay [2] (setting [4]), 12 nM.
For `CN(O)C(=O)C=Cc1ccccc1SCCCCCC(F)(F)F` [Example 44, 2-[1-(5-trifluoromethylpentyl)thio]-N-hydroxy-N-methylcinnamamide], the values for the IC50 in assay [1] (setting [3]) and in assay [2] (setting [4]) were 31 nM and 17 nM, respectively.
On to `CCCCSc1ccc(CCCc2ccccc2)cc1C=CC(=O)N(C)O` [Example 29, 2-n-butylthio-5-(3-phenylpropyl)-N-hydroxy-N-methylcinnamamide], for which the IC50 in assay [1] (setting [3]) turned out to be 94 nM; in assay [2] (setting [4]) it was 58 nM.
`CSc1ccc(CCCc2ccccc2)cc1C=CC(=O)N(C)O` [Example 27, 2-(methylthio)-5-(3-phenylpropyl)-N-hydroxy-N-methylcinnamamide]: the figures for the IC50 in assay [1] (setting [3]) and in assay [2] (setting [4]) were 26 nM and 18 nM, respectively.
